Laboratory results published in ChEMBL document CHEMBL4312014, “Nitrothiadiazolo[3,2-a]pyrimidines as promising antiglycating agents” (Eur J Med Chem, 2020).
The source made the active and inactive calls. The rule behind the calls is not given here.

Experiments:
Rattus norvegicus [1] = assay: Ex vivo inhibition of DPP4 in Wistar rat serum assessed as decrease in p-nitroaniline formation at 10 mg/kg, po by incubating 0 to 4 hrs compound-treated serum with Gly-Pro-p-nitroanilide substrate and measured for 30 mins by microplate reader analysis; format: functional, organism-based
[2] = Anti-glycation activity assessed as inhibition of AGE formation by measuring decrease in glycated BSA protein level at 100 uM incubated for 24 hrs in presence of glucose by fluorescence based assay relative to control; format: functional
[3] = Anti-glycation activity assessed as inhibition of AGE formation by measuring decrease in glycated BSA protein level at 1000 uM incubated for 24 hrs in presence of glucose by fluorescence based assay relative to control; format: functional
Dipeptidyl peptidase 4 [4] = molecular target: T1, Dipeptidyl peptidase 4 (Homo sapiens, UniProt P27487); details: Serum, at 100 µM
Target sequence in this assay (P27487 whole entry, looked up): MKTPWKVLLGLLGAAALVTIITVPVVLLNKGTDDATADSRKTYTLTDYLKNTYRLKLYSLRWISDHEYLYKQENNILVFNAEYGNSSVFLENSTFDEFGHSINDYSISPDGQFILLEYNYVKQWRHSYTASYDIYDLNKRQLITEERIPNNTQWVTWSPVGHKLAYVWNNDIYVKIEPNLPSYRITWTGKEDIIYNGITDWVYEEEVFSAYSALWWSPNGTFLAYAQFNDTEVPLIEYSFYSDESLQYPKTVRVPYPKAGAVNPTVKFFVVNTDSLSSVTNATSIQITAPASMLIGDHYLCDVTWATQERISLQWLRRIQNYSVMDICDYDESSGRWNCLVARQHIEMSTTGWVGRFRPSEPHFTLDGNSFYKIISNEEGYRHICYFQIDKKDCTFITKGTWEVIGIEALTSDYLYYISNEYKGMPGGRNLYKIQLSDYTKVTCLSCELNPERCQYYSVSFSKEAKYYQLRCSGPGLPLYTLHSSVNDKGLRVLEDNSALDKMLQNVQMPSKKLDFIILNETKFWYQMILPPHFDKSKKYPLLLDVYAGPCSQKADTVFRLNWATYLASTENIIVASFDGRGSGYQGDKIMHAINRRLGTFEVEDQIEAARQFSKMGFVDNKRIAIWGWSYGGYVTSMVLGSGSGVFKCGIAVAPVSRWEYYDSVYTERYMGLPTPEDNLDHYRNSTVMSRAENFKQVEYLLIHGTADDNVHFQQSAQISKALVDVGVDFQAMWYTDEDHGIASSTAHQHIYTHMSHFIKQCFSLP

Rattus norvegicus [5] = assay: Ex vivo inhibition of DPP4 in Wistar rat serum assessed as p-nitroaniline formation at 10 mg/kg, po by incubating compound-treated serum with Gly-Pro-p-nitroanilide substrate and measured for 30 mins by microplate reader analysis; format: functional, organism-based
[6] = Anti-glycation activity assessed as inhibition of AGE formation by measuring decrease in glycated BSA protein level incubated for 24 hrs in presence of glucose by fluorescence based assay; format: functional
Dipeptidyl peptidase 4 [7] = molecular target: T1, Dipeptidyl peptidase 4; format: cell-free, Serum
Target sequence in this assay (P27487 whole entry): as the sequence (P27487 whole entry, looked up) above

[8] = Metal chelating activity assessed as inhibition of Cu2+ ion-induced oxidation of ascorbic acid compound treated with CuSO4.5H2O for 5 mins followed by ascorbate addition and measured immediately by spectrophotometric analysis
Rattus norvegicus [9] = assay: Ex vivo inhibition of DPP4 in Wistar rat serum assessed as decrease in p-nitroaniline formation at 10 mg/kg, po by incubating 0 to 2 hrs compound-treated serum with Gly-Pro-p-nitroanilide substrate and measured for 30 mins by microplate reader analysis; format: functional, organism-based

N#C[C@@H]1CCCN1C(=O)CNC12CC3CC(CC(O)(C3)C1)C2
inhibition (Rattus norvegicus [1]): Active

O=c1c([N+](=O)[O-])c(NCCc2ccc(O)cc2)nc2scnn12
inhibition [2]: 43.8% | inhibition [3]: 76.8% | inhibition (Dipeptidyl peptidase 4 [4]): 42.1% | inhibition (Rattus norvegicus [5]): Active | IC50 [6]: 167 µM | IC50 (Dipeptidyl peptidase 4 [7]): > 100 µM | IC50 [8]: > 200 µM

O=c1c([N+](=O)[O-])c(NCCCO)nc2scnn12
inhibition [2]: 16.1% | inhibition [3]: 32.7% | inhibition (Rattus norvegicus [5]): Active | IC50 [8]: > 200 µM

CC(C)Nc1nc2scnn2c(=O)c1[N+](=O)[O-]
inhibition [2]: 30% | inhibition [3]: 69.6% | inhibition (Rattus norvegicus [5]): Active | IC50 [6]: 325 µM | IC50 [8]: > 200 µM

CC1(C)OCC(CNc2nc3scnn3c(=O)c2[N+](=O)[O-])O1 (stereo not drawn)
inhibition [2]: 42.1% | inhibition [3]: 71.4% | inhibition (Rattus norvegicus [5]): Active | IC50 [6]: 209 µM | IC50 [8]: 48.1 µM

N=C(N)NN [PIMAGEDINE]
inhibition [2]: 6% | inhibition [3]: 57.8% | IC50 [6]: 765 µM | IC50 [8]: > 1000 µM

O=c1c([N+](=O)[O-])c(NCCO)nc2scnn12
inhibition [2]: 29.5% | inhibition [3]: 44.4% | inhibition (Rattus norvegicus [5]): Active | IC50 [8]: 86.1 µM

CCc1ccc(CCOc2ccc(CC3SC(=O)NC3=O)cc2)nc1 (stereo not drawn) [PIOGLITAZONE]
IC50 [8]: 44.1 µM

O=c1c([N+](=O)[O-])c(NCC(O)CO)nc2scnn12 (stereo not drawn)
inhibition [2]: 10.3% | inhibition [3]: 33.7% | inhibition (Rattus norvegicus [5]): Active | IC50 [8]: > 200 µM

O=c1c([N+](=O)[O-])c(NCCCCO)nc2scnn12
inhibition [2]: 26.1% | inhibition [3]: 43.6% | inhibition (Rattus norvegicus [5]): Active | IC50 [8]: > 200 µM

CCCNc1nc2scnn2c(=O)c1[N+](=O)[O-]
inhibition [2]: 14.9% | inhibition [3]: 52.5% | inhibition (Rattus norvegicus [5]): Active | IC50 [8]: 62 µM

CC(=O)OCCCNc1nc2scnn2c(=O)c1[N+](=O)[O-]
inhibition [2]: 12.5% | inhibition [3]: 37.2% | inhibition (Rattus norvegicus [5]): Active | IC50 [8]: 115 µM

O=c1c([N+](=O)[O-])c(NCCc2ccc(Cl)cc2)nc2scnn12
inhibition [2]: 48.8% | inhibition [3]: 87.4% | inhibition (Dipeptidyl peptidase 4 [4]): 69.8% | IC50 [6]: 134 µM | IC50 (Dipeptidyl peptidase 4 [7]): 55.9 µM | inhibition (Rattus norvegicus [9]): Active | IC50 [8]: > 200 µM

CC(C)(C)Nc1nc2scnn2c(=O)c1[N+](=O)[O-]
inhibition [2]: 21.3% | inhibition [3]: 63.8% | inhibition (Rattus norvegicus [5]): Active | IC50 [6]: 181 µM | IC50 [8]: 56 µM

CC(=O)OCCCCNc1nc2scnn2c(=O)c1[N+](=O)[O-]
inhibition [2]: 11.5% | inhibition [3]: 37.5% | inhibition (Rattus norvegicus [5]): Active | IC50 [8]: > 200 µM

CCCCNc1nc2scnn2c(=O)c1[N+](=O)[O-]
inhibition [2]: 32.1% | inhibition [3]: 77% | inhibition (Rattus norvegicus [5]): Active | IC50 [6]: 204 µM | IC50 [8]: 79.1 µM

CC(C)CNc1nc2scnn2c(=O)c1[N+](=O)[O-]
inhibition [2]: 23.1% | inhibition [3]: 73.9% | inhibition (Rattus norvegicus [5]): Active | IC50 [6]: 290 µM | IC50 [8]: 37.2 µM

CC(=O)OCCNc1nc2scnn2c(=O)c1[N+](=O)[O-]
inhibition [2]: 44.8% | inhibition [3]: 50.8% | inhibition (Rattus norvegicus [5]): Active | IC50 [8]: > 200 µM

O=C(O)CCCCC1CCSS1 (stereo not drawn) [LIPOIC ACID, ALPHA]
IC50 [8]: 68.9 µM
